Measured values as given in the NIST ThermoML archive (doi:10.1007/s10765-009-0579-1).
Numbers after ± are expanded uncertainties.

Test: xn = mol fraction of the nth substance listed
Settings: Gas; for viscosity: Oscillating disk viscometry; for mass density: Pycnometric method
[1] = 373.15 K, 2604 kPa, x2 = 0.7502
[2] = 373.15 K, 2789 kPa, x2 = 0.7502
[3] = 373.15 K, 2988 kPa, x2 = 0.7502
[4] = 398.15 K, 100.6 kPa, x2 = 0.7502
[5] = 398.15 K, 101.6 kPa, x2 = 0.2615
[6] = 398.15 K, 101.8 kPa, x2 = 0.5169
[7] = 398.15 K, 278.9 kPa, x2 = 0.2615
[8] = 398.15 K, 345.7 kPa, x2 = 0.5169
[9] = 398.15 K, 404.8 kPa, x2 = 0.7502
[10] = 398.15 K, 591.5 kPa, x2 = 0.5169
[11] = 398.15 K, 654.1 kPa, x2 = 0.2615
[12] = 398.15 K, 779.9 kPa, x2 = 0.7502
[13] = 398.15 K, 834.7 kPa, x2 = 0.5169
[14] = 398.15 K, 908.9 kPa, x2 = 0.2615
[15] = 398.15 K, 1036 kPa, x2 = 0.7502
[16] = 398.15 K, 1081 kPa, x2 = 0.5169
[17] = 398.15 K, 1153 kPa, x2 = 0.2615
[18] = 398.15 K, 1326 kPa, x2 = 0.5169
[19] = 398.15 K, 1374 kPa, x2 = 0.7502
[20] = 398.15 K, 1397 kPa, x2 = 0.2615
[21] = 398.15 K, 1569 kPa, x2 = 0.5169
[22] = 398.15 K, 1608 kPa, x2 = 0.2615
[23] = 398.15 K, 1667 kPa, x2 = 0.7502
[24] = 398.15 K, 1821 kPa, x2 = 0.2615
[25] = 398.15 K, 1824 kPa, x2 = 0.5169
[26] = 398.15 K, 2016 kPa, x2 = 0.7502
[27] = 398.15 K, 2031 kPa, x2 = 0.2615
[28] = 398.15 K, 2121 kPa, x2 = 0.5169
[29] = 398.15 K, 2251 kPa, x2 = 0.2615
[30] = 398.15 K, 2376 kPa, x2 = 0.5169
[31] = 398.15 K, 2376 kPa, x2 = 0.7502
[32] = 398.15 K, 2442 kPa, x2 = 0.2615
[33] = 398.15 K, 2634 kPa, x2 = 0.5169
[34] = 398.15 K, 2637 kPa, x2 = 0.2615
[35] = 398.15 K, 2813 kPa, x2 = 0.7502
[36] = 398.15 K, 2835 kPa, x2 = 0.2615
[37] = 398.15 K, 2884 kPa, x2 = 0.5169
[38] = 398.15 K, 3101 kPa, x2 = 0.2615
[39] = 398.15 K, 3115 kPa, x2 = 0.7502
[40] = 398.15 K, 3195 kPa, x2 = 0.5169
[41] = 398.15 K, 3322 kPa, x2 = 0.2615
[42] = 398.15 K, 3403 kPa, x2 = 0.7502
[43] = 398.15 K, 3432 kPa, x2 = 0.5169
[44] = 398.15 K, 3481 kPa, x2 = 0.2615
[45] = 398.15 K, 3698 kPa, x2 = 0.2615
[46] = 398.15 K, 3714 kPa, x2 = 0.5169
[47] = 398.15 K, 3825 kPa, x2 = 0.7502
[48] = 398.15 K, 3854 kPa, x2 = 0.2615
[49] = 398.15 K, 3961 kPa, x2 = 0.5169
[50] = 398.15 K, 3998 kPa, x2 = 0.2615
[51] = 398.15 K, 4086 kPa, x2 = 0.7502
[52] = 398.15 K, 4222 kPa, x2 = 0.5169
[53] = 398.15 K, 4343 kPa, x2 = 0.7502
[54] = 398.15 K, 4446 kPa, x2 = 0.5169
[55] = 398.15 K, 4642 kPa, x2 = 0.7502
[56] = 398.15 K, 4840 kPa, x2 = 0.7502
[57] = 423.15 K, 101.1 kPa, x2 = 0.7502

## CC(F)(F)Cl [1-chloro-1,1-difluoroethane] + FC(F)Cl
[1]
  viscosity: 0.01618 ± 0.00053 mPa·s
  mass density: 99.88 ± 0.24 kg/m3
[2]
  viscosity: 0.01638 ± 0.00054 mPa·s
  mass density: 110.3 ± 0.3 kg/m3
[3]
  viscosity: 0.01665 ± 0.00054 mPa·s
  mass density: 121.8 ± 0.3 kg/m3
[4]
  viscosity: 0.01605 ± 0.00053 mPa·s
  mass density: 2.753 ± 0.25 kg/m3
[5]
  viscosity: 0.01472 ± 0.0005 mPa·s
  mass density: 2.997 ± 0.25 kg/m3
[6]
  viscosity: 0.01547 ± 0.00051 mPa·s
  mass density: 2.886 ± 0.25 kg/m3
398.15 K, 102 kPa, x2 = 0.2615
  viscosity: 0.0147 ± 0.0005 mPa·s
  mass density: 3.006 ± 0.25 kg/m3
[7]
  viscosity: 0.01475 ± 0.0005 mPa·s
  mass density: 8.354 ± 0.26 kg/m3
[8]
  viscosity: 0.01548 ± 0.00051 mPa·s
  mass density: 9.975 ± 0.26 kg/m3
[9]
  viscosity: 0.01605 ± 0.00053 mPa·s
  mass density: 11.29 ± 0.26 kg/m3
398.15 K, 468 kPa, x2 = 0.2615
  viscosity: 0.01477 ± 0.0005 mPa·s
  mass density: 14.28 ± 0.26 kg/m3
[10]
  viscosity: 0.01553 ± 0.00052 mPa·s
  mass density: 17.39 ± 0.26 kg/m3
[11]
  viscosity: 0.01482 ± 0.0005 mPa·s
  mass density: 20.27 ± 0.26 kg/m3
[12]
  viscosity: 0.01612 ± 0.00053 mPa·s
  mass density: 22.29 ± 0.26 kg/m3
[13]
  viscosity: 0.01557 ± 0.00052 mPa·s
  mass density: 25.01 ± 0.26 kg/m3
[14]
  viscosity: 0.01485 ± 0.0005 mPa·s
  mass density: 28.88 ± 0.26 kg/m3
[15]
  viscosity: 0.01619 ± 0.00053 mPa·s
  mass density: 30.15 ± 0.26 kg/m3
[16]
  viscosity: 0.01562 ± 0.00052 mPa·s
  mass density: 33.05 ± 0.26 kg/m3
[17]
  viscosity: 0.01493 ± 0.0005 mPa·s
  mass density: 37.53 ± 0.26 kg/m3
[18]
  viscosity: 0.01572 ± 0.00052 mPa·s
  mass density: 41.4 ± 0.26 kg/m3
[19]
  viscosity: 0.01628 ± 0.00053 mPa·s
  mass density: 40.98 ± 0.26 kg/m3
[20]
  viscosity: 0.01504 ± 0.0005 mPa·s
  mass density: 46.73 ± 0.26 kg/m3
[21]
  viscosity: 0.01584 ± 0.00052 mPa·s
  mass density: 50.2 ± 0.26 kg/m3
[22]
  viscosity: 0.0151 ± 0.00051 mPa·s
  mass density: 55.16 ± 0.26 kg/m3
[23]
  viscosity: 0.01642 ± 0.00054 mPa·s
  mass density: 50.88 ± 0.26 kg/m3
[24]
  viscosity: 0.01525 ± 0.00051 mPa·s
  mass density: 63.97 ± 0.27 kg/m3
[25]
  viscosity: 0.01596 ± 0.00053 mPa·s
  mass density: 59.84 ± 0.27 kg/m3
[26]
  viscosity: 0.01657 ± 0.00054 mPa·s
  mass density: 63.22 ± 0.27 kg/m3
[27]
  viscosity: 0.01542 ± 0.00051 mPa·s
  mass density: 73.54 ± 0.27 kg/m3
[28]
  viscosity: 0.01616 ± 0.00053 mPa·s
  mass density: 71.87 ± 0.27 kg/m3
[29]
  viscosity: 0.0156 ± 0.00052 mPa·s
  mass density: 84.17 ± 0.27 kg/m3
[30]
  viscosity: 0.01632 ± 0.00053 mPa·s
  mass density: 82.87 ± 0.27 kg/m3
[31]
  viscosity: 0.01679 ± 0.00055 mPa·s
  mass density: 77.16 ± 0.27 kg/m3
[32]
  viscosity: 0.01576 ± 0.00052 mPa·s
  mass density: 94.09 ± 0.27 kg/m3
[33]
  viscosity: 0.01655 ± 0.00054 mPa·s
  mass density: 94.96 ± 0.27 kg/m3
[34]
  viscosity: 0.01598 ± 0.00053 mPa·s
  mass density: 105.1 ± 0.3 kg/m3
[35]
  viscosity: 0.01711 ± 0.00055 mPa·s
  mass density: 95.48 ± 0.27 kg/m3
[36]
  viscosity: 0.01629 ± 0.00053 mPa·s
  mass density: 117.2 ± 0.3 kg/m3
[37]
  viscosity: 0.0168 ± 0.00055 mPa·s
  mass density: 107.4 ± 0.3 kg/m3
[38]
  viscosity: 0.01673 ± 0.00054 mPa·s
  mass density: 136 ± 0.3 kg/m3
[39]
  viscosity: 0.01741 ± 0.00056 mPa·s
  mass density: 109.3 ± 0.3 kg/m3
[40]
  viscosity: 0.01716 ± 0.00055 mPa·s
  mass density: 124.9 ± 0.3 kg/m3
[41]
  viscosity: 0.01724 ± 0.00056 mPa·s
  mass density: 154.3 ± 0.3 kg/m3
[42]
  viscosity: 0.01784 ± 0.00057 mPa·s
  mass density: 128.5 ± 0.3 kg/m3
[43]
  viscosity: 0.01752 ± 0.00056 mPa·s
  mass density: 139.6 ± 0.3 kg/m3
[44]
  viscosity: 0.01773 ± 0.00057 mPa·s
  mass density: 170.2 ± 0.3 kg/m3
[45]
  viscosity: 0.01858 ± 0.00059 mPa·s
  mass density: 196.3 ± 0.3 kg/m3
[46]
  viscosity: 0.01808 ± 0.00058 mPa·s
  mass density: 159.3 ± 0.3 kg/m3
[47]
  viscosity: 0.01827 ± 0.00058 mPa·s
  mass density: 146.7 ± 0.3 kg/m3
[48]
  viscosity: 0.01953 ± 0.00061 mPa·s
  mass density: 222.4 ± 0.4 kg/m3
[49]
  viscosity: 0.01865 ± 0.00059 mPa·s
  mass density: 179.5 ± 0.3 kg/m3
[50]
  viscosity: 0.02101 ± 0.00064 mPa·s
  mass density: 261.2 ± 0.4 kg/m3
[51]
  viscosity: 0.01865 ± 0.00059 mPa·s
  mass density: 162.7 ± 0.3 kg/m3
[52]
  viscosity: 0.01952 ± 0.00061 mPa·s
  mass density: 204.9 ± 0.3 kg/m3
[53]
  viscosity: 0.01918 ± 0.0006 mPa·s
  mass density: 180.2 ± 0.3 kg/m3
[54]
  viscosity: 0.02048 ± 0.00063 mPa·s
  mass density: 231.6 ± 0.3 kg/m3
[55]
  viscosity: 0.01991 ± 0.00062 mPa·s
  mass density: 203.6 ± 0.3 kg/m3
[56]
  viscosity: 0.0205 ± 0.00063 mPa·s
  mass density: 218.9 ± 0.3 kg/m3
[57]
  viscosity: 0.01682 ± 0.00055 mPa·s
  mass density: 2.597 ± 0.29 kg/m3
